The record followed here is patent publication US7205302B2, “Heterocyclic compound derivatives and medicines” (Nippon Shinyaku Co., Ltd., priority 2001, dated 2007).

Series [1] concerns ADP-induced platelet aggregation in human PRP. The series is described as follows: Human platelet aggregation inhibition test. It counts as cell-based. Conditions: ADP 1×10^−5 M. On the procedure: Human Platelet Aggregation Inhibition Test
Blood collected from healthy human volunteers into aqueous trisodium citrate solution was centrifuged at 200×g for 10 minutes and the upper layer was recovered to obtain platelet-rich plasma (PRP). The residual blood containing trisodium citrate added therein was centrifuged at 1500×g for 10 minutes and the supernatant was collected as platelet-poor plasma (PPP). The number of platelets in the PRP was adjusted to about 300,000/μl by PPP. Platelet aggregation was measured by an aggregometer. 180 μl of PRP was added to cuvettes and incubated at 37° C. for one minute, and then 10 μl of test compound solution (prepared by dissolving a test compound with a 1.5-fold mole of a sodium hydroxide solution and diluting with water) was added and the mixture was further incubated for 2 minutes. Then, 10 μl of aqueous adenosine diphosphate (ADP) solution was added to adjust the final concentration as 1×10^−5 M and platelet aggregation was induced and observed for 7 minutes. Inhibition percentage of aggregation was calculated from the percentage of aggregation upon the addition of the test compound to the percentage of aggregation upon the addition of water in place of the test compound solution (control).

For series [2], the system named is mice. Kind of series: Single-dose toxicity test in mice. It counts as in vivo. Conditions: oral, 10, 30 or 100 mg/kg. The protocol: Singl-Dose Toxicity Test in Mice
The compound of Example 42 was orally administered to mice (including three mice in a group) at a dose of 10, 30 or 100 mg/kg.

In series [3] the target is T1, PGI2 receptor (human platelet membrane, 3H-Iloprost binding) (Homo sapiens, UniProt P43119).
T1 construct: Human platelet membrane of 100 μg protein was suspended; from tissue; host or cells: human platelet membrane
T1 sequence (P43119 whole entry): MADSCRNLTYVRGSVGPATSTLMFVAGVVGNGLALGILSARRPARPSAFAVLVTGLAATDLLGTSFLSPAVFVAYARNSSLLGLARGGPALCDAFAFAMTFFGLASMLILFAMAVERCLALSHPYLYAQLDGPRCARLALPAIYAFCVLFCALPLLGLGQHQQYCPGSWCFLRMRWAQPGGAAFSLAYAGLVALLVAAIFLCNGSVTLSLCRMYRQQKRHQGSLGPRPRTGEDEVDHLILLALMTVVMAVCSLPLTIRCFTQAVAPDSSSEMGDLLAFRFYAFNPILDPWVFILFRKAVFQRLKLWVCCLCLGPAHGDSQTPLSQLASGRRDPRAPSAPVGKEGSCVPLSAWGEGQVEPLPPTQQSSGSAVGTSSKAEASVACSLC
Kind of series: 3H-Iloprost binding inhibition test to human platelet membrane. Conditions: compound 1 μM, 5 nM 3H-Iloprost, 37° C., 10 minutes. On the procedure:
^3H-Iloprost Binding Inhibition Test to Human Platelet Membrane
The platelet membrane was collected on a glass filter and its radioactivity was measured after washing four times with 50 mM Tris-HCl buffer.

Counter-ions that a name gives are not always drawn.

The IC50 is the point on the concentration scale where inhibition reaches its midpoint. A low value points to greater potency. In series [1], `CC(C)N(CCCCOCC(=O)O)c1cnc(-c2ccccc2)c(-c2ccccc2)n1` [Example 42, 2-{4-[N-(5,6-diphenylpyrazin-2-yl)-N-isopropylamino]butyloxy}acetic acid] displayed an IC50 of 200 nM. The “deaths after single oral dose” value in series [2] is “no deaths”.
`CN(CCCCOCC(=O)O)c1ccc(-c2ccccc2)c(-c2ccccc2)n1` [Example 46, 2-{4-[N-(5,6-diphenylpyridin-2-yl)-N-methylamino]butyloxy}acetic acid sodium salt] displayed an IC50 in series [1] of 500 nM.
What is called melting point is the temperature, or range, at which the solid turns liquid. Consider `Cc1ccc(-c2nnc(N(CCCCOCC(=O)O)C(C)C)nc2-c2ccc(C)cc2)cc1` [Example 48, 2-{4-[N-(5,6-di-p-tolyl-1,2,4-triazin-3-yl)-N-isopropylamino]butyloxy}acetic acid], for which the melting point lay in the range of 119 to 121 °C. The same compound registered an IC50 in series [1] of 400 nM.
With `CN(CCCCOCC(=O)O)c1cnc(-c2ccccc2)c(-c2ccccc2)n1` [Example 64, 2-{4-[N-(5,6-diphenylpyrazin-2-yl)-N-methylamino]butyloxy}acetic acid], in series [3], the “inhibition of binding of 3H-Iloprost” value was determined as 85%.
Turning to `CN(CCCCOCC(=O)O)c1c[n+]([O-])c(-c2ccccc2)c(-c2ccccc2)n1` [Example 73, 2,3-diphenyl-5-{N-[4-(carboxymethoxy)butyl]-N-methylamino}pyrazine 1-oxide], the melting point is 185 to 190 °C. The IC50 in series [1] was determined as 200 nM.
Consider `CN(CCCCOCC(=O)O)c1ncc(-c2ccccc2)c(-c2ccccc2)n1` [Example 74, 2-{4-[N-(4,5-diphenylpyrimidin-2-yl)-N-methylamino]butyloxy}acetic acid], for which the midpoint of inhibition in series [1], the IC50, lay at 800 nM.
As to `Cc1ccc(-c2cnc(N(C)CCCCOCC(=O)O)nc2-c2ccc(C)cc2)cc1` [Example 75, 2-{4-[N-(4,5-di-p-tolylpyrimidin-2-yl)-N-methylamino]butyloxy}acetic acid], the IC50 in series [1] stood at 200 nM.
Compound `CC(C)N(CCCCSCC(=O)O)c1cnc(-c2ccccc2)c(-c2ccccc2)n1` [Example 78, 2-{4-[N-(5,6-diphenylpyrazin-2-yl)-N-isopropylamino]butylthio]acetic acid sodium salt] displayed an IC50 in series [1] of 300 nM.
